Data on 19 compounds can be found in patent publication US11702422B2, “Imidazopyridazines as modulators of IL-17” (Janssen Pharmaceutica NV, priority 2020, dated 2023).

Each structure is given as a SMILES string.

In test [1] the test system is IL-17A-induced G-CSF production in human normal keratinocyte (NHK). The test is described as follows: NHK Assay: IL-17A-induced G-CSF production in human normal keratinocytes. It is filed as cell-based. The note with it: 24 h, adult normal human keratinocytes, IL-17A 5 ng/mL, simple average if tested more than once. The gist of the method: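 Adult NHK, 3000-4000 cells/well; rhIL-17A + titrated cpd preincubated 1 h rt, then onto cells. Final: IL-17A 5 ng/mL, DMSO 0.2%, 5% FBS. 24 h, 37° C. G-CSF in supernatant by HTRF vs standard curve; IC50. Viability by CellTiter-Glo vs DMSO.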

In test [2] the target is IL-17A(FLAG-Tagged): IL-17RA(His-Tagged) (Homo sapiens, UniProt Q16552, K93Q). As to the kind of experiment: IL-17A(FLAG-Tagged): IL-17RA(His-Tagged) Binding Disruption Eu-HTRF Assay. The note with it: IL-17A/IL-17RA binding disruption, simple average if tested more than once. An outline of the steps:
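IC50 comes from a one-site competition fit of the HTRF 665/620 nm ratio. Compound dilutions (2-fold, 22 points) were held 1 h rt with FLAG-tagged IL-17A dimer, then His-tagged IL-17RA plus Eu-cryptate anti-FLAG and D2 anti-His antibodies were added for 2 h rt.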

Chain of UniProt Q16552 (Q16552 with tags, fused parts or gaps K93Q): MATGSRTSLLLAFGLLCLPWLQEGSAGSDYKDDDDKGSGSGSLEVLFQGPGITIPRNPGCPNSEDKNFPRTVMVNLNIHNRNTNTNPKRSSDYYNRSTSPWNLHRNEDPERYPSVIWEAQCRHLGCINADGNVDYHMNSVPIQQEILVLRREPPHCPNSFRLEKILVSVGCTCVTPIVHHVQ

For the compound `C[C@@H](n1ncnc1C(=O)N[C@H](c1cn2ncc([C@H](NC(=O)CCC(F)(F)F)C3CC3)cc2n1)C1CCC(F)(F)CC1)C(F)(F)F` [Example 478, N—((S)-(7-((R)-Cyclopropyl(4,4,4-trifluorobutanamido)methyl)imidazo[1,2-b]pyridazin-2-yl)(4,4-difluorocyclohexyl)methyl)-1-((R)-1,1,1-trifluoropropan-2-yl)-1H-1,2,4-triazole-5-carboxamide], the IC50 turned out to be 850 nM in test [1] (Homo sapiens, Keratinocyte) and 450 nM in test [2].

For `Cn1nnc(C(=O)N[C@H](c2cn3ncc([C@H](NC(=O)CCC(F)(F)F)C4CC4)cc3n2)C2CCC(F)(F)CC2)c1C(F)F` [Example 66, N—((S)-(7-((R)-Cyclopropyl(4,4,4-trifluorobutanamido)methyl)imidazo[1,2-b]pyridazin-2-yl)(4,4-difluorocyclohexyl)methyl)-5-(difluoromethyl)-1-methyl-1H-1,2,3-triazole-4-carboxamide], the IC50 in test [1] (Homo sapiens, Keratinocyte) stood at 3500 nM; in test [2] it was 230 nM.

As to `O=C(CCC(F)(F)F)N[C@@H](c1cnn2cc([C@@H](NC(=O)c3conc3C3CC3)C3CCC(F)(F)CC3)nc2c1)C1CC1` [Example 75, 3-Cyclopropyl-N—((S)-(7-((R)-cyclopropyl(4,4,4-trifluorobutanamido)methyl)imidazo[1,2-b]pyridazin-2-yl)(4,4-difluorocyclohexyl)methyl)isoxazole-4-carboxamide], the IC50 came out at 92 nM in test [1] (Homo sapiens, Keratinocyte) and 50 nM in test [2].

For `CC(C)(OC[C@H](NC(=O)c1nonc1C1CC1)c1cn2ncc([C@H](NC(=O)CC3CC(F)(F)C3)C3CCOCC3)cc2n1)C(F)(F)F` [Example 540, 4-Cyclopropyl-N—((R)-1-(7-((R)-(2-(3,3-difluorocyclobutyl)acetamido)(tetrahydro-2H-pyran-4-yl)methyl)imidazo[1,2-b]pyridazin-2-yl)-2-((1,1,1-trifluoro-2-methylpropan-2-yl)oxy)ethyl)-1,2,5-oxadiazole-3-carboxamide], the IC50 was 9.6 nM in test [1] (Homo sapiens, Keratinocyte) and 14 nM in test [2].

`O=C(CCC(F)(F)F)N[C@@H](c1cnn2cc([C@@H](NC(=O)c3ccnc(OCC(F)(F)F)c3)C3CCC(F)(F)CC3)nc2c1)C1CC1` [Example 171, N—((S)-(7-((R)-Cyclopropyl(4,4,4-trifluorobutanamido)methyl)imidazo[1,2-b]pyridazin-2-yl)(4,4-difluorocyclohexyl)methyl)-2-(2,2,2-trifluoroethoxy)isonicotinamide]: the IC50 amounted to 320 nM in test [1] (Homo sapiens, Keratinocyte) and 48 nM in test [2].

Take `O=C(CCC(F)(F)F)N[C@@H](c1cnn2cc([C@@H](NC(=O)c3nocc3CC(F)(F)F)C3CCC(F)(F)CC3)nc2c1)C1CC1` [Example 377, N—((S)-(7-((R)-Cyclopropyl(4,4,4-trifluorobutanamido)methyl)imidazo[1,2-b]pyridazin-2-yl)(4,4-difluorocyclohexyl)methyl)-4-(2,2,2-trifluoroethyl)isoxazole-3-carboxamide]: the IC50 was determined as 85 nM in test [1] (Homo sapiens, Keratinocyte) and 60 nM in test [2].

Turning to `O=C(CC1CC(F)(F)C1)NC(c1cnn2cc([C@@H](NC(=O)c3cnnn3CCC(F)(F)F)C3CCC(F)(F)CC3)nc2c1)C1CC1` (single isomer, unassigned) [Example 73, N—((S)-(7-((R*)-Cyclopropyl(2-(3,3-difluorocyclobutyl)acetamido)methyl)imidazo[1,2-b]pyridazin-2-yl)(4,4-difluorocyclohexyl)methyl)-1-(3,3,3-trifluoropropyl)-1H-1,2,3-triazole-5-carboxamide], the IC50 in test [1] is about 15000 nM; in test [2] it was 1900 nM.

In the case of `O=C(CCC(F)(F)F)N[C@@H](c1cnn2cc([C@@H](NC(=O)[C@H]3C[C@H]3CF)C3CCC(F)(F)CC3)nc2c1)C1CC1` (relative stereo) [Example 364, (1S*,2R*)—N—((S)-(7-((R*)-Cyclopropyl(4,4,4-trifluorobutanamido)methyl)imidazo[1,2-b]pyridazin-2-yl)(4,4-difluorocyclohexyl)methyl)-2-(fluoromethyl)cyclopropane-1-carboxamide], the half-inhibitory concentration (IC50) in test [1] (Homo sapiens, Keratinocyte) was over 20000 nM; in test [2] it was 2100 nM.

In the case of `Cc1nonc1C(=O)N[C@H](c1cn2ncc([C@H](NC(=O)CC(C)(F)F)C3CC3)cc2n1)C1CCC(F)(F)CC1` [Example 263, N—((S)-(7-((R)-Cyclopropyl(3,3-difluorobutanamido)methyl)imidazo[1,2-b]pyridazin-2-yl)(4,4-difluorocyclohexyl)methyl)-4-methyl-1,2,5-oxadiazole-3-carboxamide], the IC50 came out at 1800 nM in test [1] (Homo sapiens, Keratinocyte) and 210 nM in test [2].

As for `O=C(CCC(F)(F)F)N[C@@H](c1cnn2cc([C@@H](NC(=O)c3nonc3OCC(F)(F)F)C3CCC(F)(F)CC3)nc2c1)C1CC1` [Example 382, N—((S)-(7-((R)-Cyclopropyl(4,4,4-trifluorobutanamido)methyl)imidazo[1,2-b]pyridazin-2-yl)(4,4-difluorocyclohexyl)methyl)-4-(2,2,2-trifluoroethoxy)-1,2,5-oxadiazole-3-carboxamide], the IC50 in test [1] (Homo sapiens, Keratinocyte) was found to be 11 nM; in test [2], 51 nM.

Consider `O=C(CCC(F)(F)F)N[C@@H](c1cnn2cc([C@@H](NC(=O)c3ncnn3CC(F)F)C3CCC(F)(F)CC3)nc2c1)C1CC1` [Example 56, N—((S)-(7-((R)-Cyclopropyl(4,4,4-trifluorobutanamido)methyl)imidazo[1,2-b]pyridazin-2-yl)(4,4-difluorocyclohexyl)methyl)-1-(2,2-difluoroethyl)-1H-1,2,4-triazole-5-carboxamide], for which the IC50 was 730 nM in test [1] (Homo sapiens, Keratinocyte) and 170 nM in test [2].

Consider `CC(C)Oc1conc1C(=O)N[C@H](c1cn2ncc([C@H](NC(=O)CCC(F)(F)F)C3CC3)cc2n1)C1CCC(F)(F)CC1` [Example 374, N—((S)-(7-((R)-Cyclopropyl(4,4,4-trifluorobutanamido)methyl)imidazo[1,2-b]pyridazin-2-yl)(4,4-difluorocyclohexyl)methyl)-4-isopropoxyisoxazole-3-carboxamide], for which the IC50 turned out to be 240 nM in test [1] (Homo sapiens, Keratinocyte) and 46 nM in test [2].

As for `Cc1nonc1C(=O)N[C@H](c1cn2ncc(C(NC(=O)CCC(F)(F)F)C(C)C)cc2n1)C1CCC(F)(F)CC1` (single isomer, unassigned) [Example 546, N—((S)-(4,4-Difluorocyclohexyl)(7-((R*)-2-methyl-1-(4,4,4-trifluorobutanamido)propyl)imidazo[1,2-b]pyridazin-2-yl)methyl)-4-methyl-1,2,5-oxadiazole-3-carboxamide], the half-inhibitory concentration (IC50) was over 20000 nM in test [1] and 640 nM in test [2].

Consider `Cc1nonc1C(=O)N[C@H](c1cn2ncc(C(CC#N)NC(=O)CC3CC(F)(F)C3)cc2n1)C1CCC(F)(F)CC1` (single isomer, unassigned) [Example 397, N—((S)-(7-((S*)-2-Cyano-1-(2-(3,3-difluorocyclobutyl)acetamido)ethyl)imidazo[1,2-b]pyridazin-2-yl)(4,4-difluorocyclohexyl)methyl)-4-methyl-1,2,5-oxadiazole-3-carboxamide], for which the IC50 in test [1] is 600 nM; in test [2], 120 nM.

For `CC(C)c1ocnc1C(=O)N[C@H](c1cn2ncc([C@H](NC(=O)CCC(F)(F)F)C3CC3)cc2n1)C1CCC(F)(F)CC1` [Example 86, N—((S)-(7-((R)-Cyclopropyl(4,4,4-trifluorobutanamido)methyl)imidazo[1,2-b]pyridazin-2-yl)(4,4-difluorocyclohexyl)methyl)-5-isopropyloxazole-4-carboxamide], the IC50 came out at 350 nM in test [1] (Homo sapiens, Keratinocyte) and 210 nM in test [2].

As to `O=C(CCC(F)(F)F)N[C@@H](c1cnn2cc([C@@H](NC(=O)c3cncnc3)C3CCC(F)(F)CC3)nc2c1)C1CC1` [Example 204, N—((S)-(7-((R)-Cyclopropyl(4,4,4-trifluorobutanamido)methyl)imidazo[1,2-b]pyridazin-2-1)(4,4-difluorocyclohexyl)methyl)pyrimidine-5-carboxamide], the IC50 in test [1] (Homo sapiens, Keratinocyte) amounted to 3300 nM; in test [2] it was 320 nM.

As for `Cc1nonc1C(=O)N[C@H](c1cn2ncc([C@H](NC(=O)COC3CC3)C3CC3)cc2n1)C1CCC(F)(F)CC1` [Example 306, N—((S)-(7-((R)-(2-Cyclopropoxyacetamido)(cyclopropyl)methyl)imidazo[1,2-b]pyridazin-2-yl)(4,4-difluorocyclohexyl)methyl)-4-methyl-1,2,5-oxadiazole-3-carboxamide], the IC50 in test [1] (Homo sapiens, Keratinocyte) came to 1500 nM; in test [2], 210 nM.

For the compound `CCc1nonc1C(=O)N[C@H](c1cn2ncc([C@H](NC(=O)CCC(F)(F)F)C3CC3)cc2n1)C1CCC(F)(F)CC1` [Example 156, N—((S)-(7-((R)-Cyclopropyl(4,4,4-trifluorobutanamido)methyl)imidazo[1,2-b]pyridazin-2-yl)(4,4-difluorocyclohexyl)methyl)-4-ethyl-1,2,5-oxadiazole-3-carboxamide], the IC50 in test [1] (Homo sapiens, Keratinocyte) was determined as 60 nM; in test [2] it was 13 nM.

Consider `CC(C)Oc1cncc(C(=O)N[C@H](c2cn3ncc([C@H](NC(=O)CCC(F)(F)F)C4CC4)cc3n2)C2CCC(F)(F)CC2)c1` [Example 185, N—((S)-(7-((R)-Cyclopropyl(4,4,4-trifluorobutanamido)methyl)imidazo[1,2-b]pyridazin-2-yl)(4,4-difluorocyclohexyl)methyl)-5-isopropoxynicotinamide], for which the IC50 in test [1] (Homo sapiens, Keratinocyte) is 690 nM; in test [2], 45 nM.
